Article PMC10873254, “Preclinical evaluation of new GRPR-antagonists with improved metabolic stability for radiotheranostic use in oncology” (EJNMMI Radiopharmacy and Chemistry, 2024)
Read-outs that look alike come from different tables or passages of the source. Marks after values point to notes of the source that are not given here. Values belong to the compound of their own block, whether it stands above or below them.

Assays:
GRPR = molecular target: T1, GRPR (Homo sapiens, UniProt P30550); test: GRPR binding affinity and kinetics on PC-3 cells (LigandTracer); conditions: 1-3 nM radioligand
T1 construct: host or cells: PC-3 human prostate adenocarcinoma cells
Protocol: For evaluation of the receptor affinity and binding kinetics, PC-3 cells were seeded in 100 mm Nunc™ Petri dishes (Thermo Fisher, Waltham, MA, USA). A LigandTracer Yellow device (Ridgeview Instruments AB, Uppsala, Sweden) was used to measure the radiation from the Petri dish. Background with RPMI-1640 medium was measured for 30 min, after which 1 nM of radioligand was added and measured for 2 h. An additional concentration (3 nM) was measured for another 2 h, thereafter the medium was aspirated, replaced with fresh medium, and left running overnight to measure the dissociation rate. Data was fitted with the TracerDrawer software (Ridgeview Instruments AB, Uppsala, Sweden).

in vivo = test: in vivo; parameters: species or system BALB/c nu/nu female mice; conditions: female, BALB/c nu/nu, mouse, iv, total radioactivity
From the text: (§1) Animal experiments were planned and performed in accordance with national legislation on protection of laboratory animals, and protocols were approved by the Ethics Committee for Animal Research in Uppsala, Sweden (5.8.18–00473/2021). BALB/c nu/nu female mice were xenografted by subcutaneous injection of PC-3 cells on the hind leg (7 × 10^6 cells/mouse). At the date of the experiment, approximately 6 weeks after implantation, tumour sizes reached 0.11 ± 0.05 g. Groups of four mice were used for each time point. In the first group, mice were iv injected with test radiopeptide (30 kBq in 100 µL PBS supplemented with 1% bovine serum albumin (BSA), corresponding to 40 pmol) and euthanized at 4 h pi. Tumors and relevant organs were collected, weighted and sample radioactivity was measured using the gamma counter. In the case of [^111In]In-AU-SAR-M1 two additional mice groups underwent the same procedure but were euthanized either at 24 h pi, or at 4 h pi following radioligand co-injection with excess (5 nmol) NOTA-PEG2-RM26 to determine the in vivo GRPR-specificity. For statistical analysis Two-Way Anova with Tuckey’s post hock analysis was employed, using GraphPad Prism 7 for Windows® (GraphPad Software, Boston, Massachusetts USA).

PC-3 xenografts = test: in vivo; parameters: species or system BALB/c nu/nu female mice; conditions: mouse
From the text: as §1

[1] = 1:2 model for M1 and M3, 1:1 model for M2, read-out: KD1
[2] = 40 pmol, GI (gastrointestinal tract) uptake
[3] = 40 pmol, Small intestines uptake
[4] = 40 pmol, Tumor-to-kidneys ratio
[5] = 40 pmol, Tumor-to-pancreas ratio
[6] = female, BALB/c nu/nu, iv, 40 pmol, 4 h

T1 sequence (P30550 whole entry): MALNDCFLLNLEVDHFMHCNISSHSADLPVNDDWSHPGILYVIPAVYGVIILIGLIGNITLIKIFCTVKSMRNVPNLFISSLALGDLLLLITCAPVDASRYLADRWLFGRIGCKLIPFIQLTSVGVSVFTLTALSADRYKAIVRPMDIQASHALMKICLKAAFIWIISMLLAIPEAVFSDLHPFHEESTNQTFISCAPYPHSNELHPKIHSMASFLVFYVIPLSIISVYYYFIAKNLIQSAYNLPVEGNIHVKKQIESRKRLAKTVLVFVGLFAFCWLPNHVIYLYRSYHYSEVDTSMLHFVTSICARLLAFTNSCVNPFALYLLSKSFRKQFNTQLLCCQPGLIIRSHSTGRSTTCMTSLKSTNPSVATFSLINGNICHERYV

- Kd (GRPR; [1]): 0.39 nM
- Kd (GRPR; 1:2 model, read-out: KD2): 1.1 nM
- tissue uptake at 4 h (in vivo; 40 pmol, Blood uptake): 0.08 ± 0.03 %ID/g
- tissue uptake at 24 h (in vivo; 40 pmol, Blood uptake): 0.01 ± 0.001 %ID/g
- tissue uptake at 4 h (in vivo; 40 pmol, Bone uptake): 0.3 ± 0.3 %ID/g
- tissue uptake at 24 h (in vivo; 40 pmol, Bone uptake): 0.04 ± 0.02 %ID/g
- tissue uptake dose at 4 h (in vivo; 40 pmol, Carcass uptake): 4 ± 2 %ID
- tissue uptake dose at 24 h (in vivo; 40 pmol, Carcass uptake): 0.48 ± 0.07 %ID
- tissue uptake dose at 4 h (in vivo; [2]): 2 ± 0.9 %ID
- tissue uptake dose at 24 h (in vivo; [2]): 0.62 ± 0.49 %ID
- tissue uptake at 4 h (in vivo; 40 pmol, Kidneys uptake): 3.1 ± 0.3 %ID/g
- tissue uptake at 24 h (in vivo; 40 pmol, Kidneys uptake): 2.38 ± 0.14 %ID/g
- tissue uptake at 4 h (in vivo; 40 pmol, Liver uptake): 0.2 ± 0.1 %ID/g
- tissue uptake at 24 h (in vivo; 40 pmol, Liver uptake): 0.09 ± 0.01 %ID/g
- tissue uptake at 4 h (in vivo; 40 pmol, Lungs uptake): 0.2 ± 0.2 %ID/g
- tissue uptake at 24 h (in vivo; 40 pmol, Lungs uptake): 0.04 ± 0.003 %ID/g
- tissue uptake at 4 h (in vivo; 40 pmol, Muscle uptake): 0.09 ± 0.06 %ID/g
- tissue uptake at 24 h (in vivo; 40 pmol, Muscle uptake): 0.02 ± 0.01 %ID/g
- tissue uptake at 4 h (in vivo; 40 pmol, Pancreas uptake): 2 ± 1 %ID/g
- tissue uptake at 24 h (in vivo; 40 pmol, Pancreas uptake): 0.12 ± 0.03 %ID/g
- tissue uptake at 4 h (in vivo; [3]): 0.8 ± 0.5 %ID/g
- tissue uptake at 24 h (in vivo; [3]): 0.07 ± 0.03 %ID/g
- tissue uptake at 4 h (in vivo; 40 pmol, Spleen uptake): 0.12 ± 0.05 %ID/g
- tissue uptake at 24 h (in vivo; 40 pmol, Spleen uptake): 0.1 ± 0.04 %ID/g
- tissue uptake at 4 h (in vivo; 40 pmol, Tumor uptake): 11 ± 1 %ID/g
- tissue uptake at 24 h (in vivo; 40 pmol, Tumor uptake): 6.3 ± 0.8 %ID/g
- tissue to tissue ratio at 4 h (in vivo; 40 pmol, Tumor-to-blood ratio): 160
- tissue to tissue ratio at 24 h (in vivo; 40 pmol, Tumor-to-blood ratio): > 550
- tissue to tissue ratio (in vivo; 40 pmol, Tumor-to-bone ratio): > 150
- tissue to tissue ratio at 4 h (in vivo; 40 pmol, Tumor-to-bone ratio): 74 ± 68
- tissue to tissue ratio at 24 h (in vivo; 40 pmol, Tumor-to-bone ratio): 173 ± 72
- tissue to tissue ratio at 4 h (in vivo; [4]): 3.6 ± 0.2
- tissue to tissue ratio at 24 h (in vivo; [4]): 2.7 ± 0.2
- tissue to tissue ratio at 4 h (in vivo; 40 pmol, Tumor-to-liver ratio): 65 ± 22
- tissue to tissue ratio at 24 h (in vivo; 40 pmol, Tumor-to-liver ratio): 67 ± 6
- tissue to tissue ratio at 4 h (in vivo; 40 pmol, Tumor-to-lungs ratio): 68 ± 39
- tissue to tissue ratio at 24 h (in vivo; 40 pmol, Tumor-to-lungs ratio): 174 ± 29
- tissue to tissue ratio at 4 h (in vivo; 40 pmol, Tumor-to-muscle ratio): 167 ± 102
- tissue to tissue ratio at 24 h (in vivo; 40 pmol, Tumor-to-muscle ratio): 375 ± 95
- tissue to tissue ratio at 4 h (in vivo; [5]): 9 ± 11
- tissue to tissue ratio at 24 h (in vivo; [5]): 57 ± 18
- tissue to tissue ratio at 4 h (in vivo; 40 pmol, Tumor-to-spleen ratio): 61 ± 19
- tissue to tissue ratio at 24 h (in vivo; 40 pmol, Tumor-to-spleen ratio): 70 ± 20
- tissue uptake dose at 4 h (in vivo; Carcass uptake): 1.1 ± 0.6 %ID
- tissue uptake dose at 4 h (in vivo; GI (gastrointestinal tract) uptake): 1.5 ± 0.3 %ID
- Tumor-to-blood ratio (PC-3 xenografts; [6]): 141 ± 61^a
- Tumor-to-pancreas ratio (PC-3 xenografts; [6]): 8 ± 7
- Tumor-to-blood ratio (PC-3 xenografts; female, BALB/c nu/nu, iv, 40 pmol, 24 h): 557 ± 58^ a
- Decrease of tumor uptake from 4 h to 24 h pi (PC-3 xenografts): ~40%
- Increase of tumor-to-muscle ratio from 4 h to 24 h pi (PC-3 xenografts): about 1.8 fold
- Initial pancreas uptake remaining at 24 h pi (PC-3 xenografts): 5%
- Tumor uptake at 24 h pi as % of the 4 h pi value (PC-3 xenografts): 57%
SMILES: CCNC(=O)[C@H](CC(C)C)NC(=O)[C@H](Cc1c[nH]cn1)NC(=O)CN(C)C(=O)[C@@H](NC(=O)[C@H](C)NC(=O)[C@H](Cc1c[nH]c2ccccc12)NC(=O)[C@H](CCC(N)=O)NC(=O)[C@@H](Cc1ccccc1)NC(=O)COCC(=O)Nc1ccc(CNC(=O)CCC(C(=O)O)N2CCN(CC(=O)O)CCN(CC(=O)O)CCN(CC(=O)O)CC2)cc1)C(C)C (stereo partly drawn) [[^111In]In-AU-SAR-M1, [^111In]In-DOTAGA-AMA-DIG-DPhe-Gln-Trp-Ala-Val-Sar-His-Leu-NHEt, metal not drawn]

- Kd (GRPR; [1]): 0.031 nM
- tissue uptake at 4 h (in vivo; 40 pmol, Blood uptake): 0.08 ± 0.01 %ID/g
- tissue uptake at 4 h (in vivo; 40 pmol, Bone uptake): 0.23 ± 0.04 %ID/g
- tissue uptake dose at 4 h (in vivo; 40 pmol, Carcass uptake): 4 ± 2 %ID
- tissue uptake dose at 4 h (in vivo; [2]): 2.9 ± 0.3 %ID
- tissue uptake at 4 h (in vivo; 40 pmol, Kidneys uptake): 3.4 ± 0.4 %ID/g
- tissue uptake at 4 h (in vivo; 40 pmol, Liver uptake): 0.3 ± 0.1 %ID/g
- tissue uptake at 4 h (in vivo; 40 pmol, Lungs uptake): 0.2 ± 0.1 %ID/g
- tissue uptake at 4 h (in vivo; 40 pmol, Muscle uptake): 0.09 ± 0.04 %ID/g
- tissue uptake at 4 h (in vivo; 40 pmol, Pancreas uptake): 9 ± 2 %ID/g
- tissue uptake at 4 h (in vivo; [3]): 2.4 ± 0.9 %ID/g
- tissue uptake at 4 h (in vivo; 40 pmol, Spleen uptake): 0.3 ± 0.1 %ID/g
- tissue uptake at 4 h (in vivo; 40 pmol, Tumor uptake): 12.7 ± 0.8 %ID/g
- tissue to tissue ratio at 4 h (in vivo; 40 pmol, Tumor-to-blood ratio): 159 ± 32
- tissue to tissue ratio at 4 h (in vivo; 40 pmol, Tumor-to-bone ratio): 58 ± 12
- tissue to tissue ratio at 4 h (in vivo; [4]): 3.8 ± 0.6
- tissue to tissue ratio at 4 h (in vivo; 40 pmol, Tumor-to-liver ratio): 47 ± 14
- tissue to tissue ratio at 4 h (in vivo; 40 pmol, Tumor-to-lungs ratio): 63 ± 22
- tissue to tissue ratio at 4 h (in vivo; 40 pmol, Tumor-to-muscle ratio): 161 ± 74
- tissue to tissue ratio at 4 h (in vivo; [5]): 1.4 ± 0.3
- tissue to tissue ratio at 4 h (in vivo; 40 pmol, Tumor-to-spleen ratio): 46 ± 11
- Tumor-to-small intestines ratio (PC-3 xenografts): 6 ± 2
SMILES: CCNC(=O)[C@H](CC(C)C)NC(=O)[C@H](Cc1c[nH]cn1)NC(=O)CN(C)C(=O)[C@@H](NC(=O)[C@H](C)NC(=O)[C@H](Cc1c[nH]c2ccccc12)NC(=O)[C@H](CCC(N)=O)NC(=O)[C@@H](Cc1ccccc1)NC(=O)COCC(=O)Nc1ccc(CNC(=O)[C@H](CCCNC(=N)N)NC(=O)CCC(C(=O)O)N2CCN(CC(=O)O)CCN(CC(=O)O)CCN(CC(=O)O)CC2)cc1)C(C)C (stereo partly shown) [[^111In]In-AU-SAR-M2, [^111In]In-[DOTAGA-Arg]AU-SAR-M1, metal not drawn]

SMILES: CCNC(=O)[C@H](CC(C)C)NC(=O)[C@H](Cc1c[nH]cn1)NC(=O)CN(C)C(=O)[C@@H](NC(=O)[C@H](C)NC(=O)[C@H](Cc1c[nH]c2ccccc12)NC(=O)[C@H](CCC(N)=O)NC(=O)[C@@H](Cc1ccccc1)NC(=O)COCC(=O)Nc1ccc(CNC(=O)[C@@H](CCCNC(=N)N)NC(=O)CCC(C(=O)O)N2CCN(CC(=O)O)CCN(CC(=O)O)CCN(CC(=O)O)CC2)cc1)C(C)C (stereo partly shown) [[^111In]In-AU-SAR-M3, [^111In]In-[DOTAGA-DArg]AU-SAR-M1, metal not drawn]
- Kd (GRPR; [1]): 0.3 nM
- Kd (GRPR; read-out: KD2, 1:2 model): 1.1 nM
- tissue uptake at 4 h (in vivo; 40 pmol, Blood uptake): 0.05 ± 0.01 %ID/g
- tissue uptake at 4 h (in vivo; 40 pmol, Bone uptake): 0.17 ± 0.04 %ID/g
- tissue uptake dose at 4 h (in vivo; 40 pmol, Carcass uptake): 2.1 ± 0.2 %ID
- tissue uptake dose at 4 h (in vivo; [2]): 0.7 ± 0.2 %ID
- tissue uptake at 4 h (in vivo; 40 pmol, Kidneys uptake): 5 ± 0.5 %ID/g
- tissue uptake at 4 h (in vivo; 40 pmol, Liver uptake): 0.25 ± 0.02 %ID/g
- tissue uptake at 4 h (in vivo; 40 pmol, Lungs uptake): 0.15 ± 0.03 %ID/g
- tissue uptake at 4 h (in vivo; 40 pmol, Muscle uptake): 0.07 ± 0.03 %ID/g
- tissue uptake at 4 h (in vivo; 40 pmol, Pancreas uptake): 0.5 ± 0.1 %ID/g
- tissue uptake at 4 h (in vivo; [3]): 0.2 ± 0.2 %ID/g
- tissue uptake at 4 h (in vivo; 40 pmol, Spleen uptake): 0.18 ± 0.03 %ID/g
- tissue uptake at 4 h (in vivo; 40 pmol, Tumor uptake): 6.7 ± 0.3 %ID/g
- tissue to tissue ratio at 4 h (in vivo; 40 pmol, Tumor-to-blood ratio): 147 ± 43
- tissue to tissue ratio at 4 h (in vivo; 40 pmol, Tumor-to-bone ratio): 41 ± 9
- tissue to tissue ratio at 4 h (in vivo; [4]): 1.4 ± 0.1
- tissue to tissue ratio at 4 h (in vivo; 40 pmol, Tumor-to-liver ratio): 27 ± 3
- tissue to tissue ratio at 4 h (in vivo; 40 pmol, Tumor-to-lungs ratio): 47 ± 14
- tissue to tissue ratio at 4 h (in vivo; 40 pmol, Tumor-to-muscle ratio): 107 ± 63
- tissue to tissue ratio at 4 h (in vivo; [5]): 14 ± 3
- tissue to tissue ratio at 4 h (in vivo; 40 pmol, Tumor-to-spleen ratio): 39 ± 8
- Tumor-to-small intestines ratio (PC-3 xenografts): 25 ± 7
